Measured values as given in PubChem BioAssay (NCI).
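Here, GI50 denotes the concentration required for 50% inhibition of growth. TGI: total growth inhibition.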

Legend:
Assay in all cases: DTP human tumour cell line panel, 384-well format
TK-10 renal = tested on: TK-10 renal
HOP-92 NSCLC = tested on: HOP-92 NSCLC
MDA-MB-468 breast = tested on: MDA-MB-468 breast
UACC-62 melanoma = tested on: UACC-62 melanoma
ACHN renal = tested on: ACHN renal
U251 glioblastoma = tested on: U251 glioblastoma
OVCAR-5 ovarian = tested on: OVCAR-5 ovarian
MDA-MB-231 breast = tested on: MDA-MB-231 breast
COLO 205 colon = tested on: COLO 205 colon
HOP-62 NSCLC = tested on: HOP-62 NSCLC
HCT-15 colon = tested on: HCT-15 colon
MCF7 breast = tested on: MCF7 breast
BT-549 breast = tested on: BT-549 breast
SF-295 CNS = tested on: SF-295 CNS
SR leukemia = tested on: SR leukemia
NCI-H522 lung = tested on: NCI-H522 lung
NCI-H226 lung = tested on: NCI-H226 lung
SK-MEL-2 melanoma = tested on: SK-MEL-2 melanoma
KM12 colon = tested on: KM12 colon
SNB-19 CNS = tested on: SNB-19 CNS
RXF 393 renal = tested on: RXF 393 renal
SF-539 CNS = tested on: SF-539 CNS
NCI-H460 NSCLC = tested on: NCI-H460 NSCLC
K-562 leukemia = tested on: K-562 leukemia
SN12C renal = tested on: SN12C renal
NCI-H322M lung = tested on: NCI-H322M lung
HCT-116 colon = tested on: HCT-116 colon
786-0 renal = tested on: 786-0 renal
A498 renal = tested on: A498 renal
OVCAR-8 ovarian = tested on: OVCAR-8 ovarian
UACC-257 melanoma = tested on: UACC-257 melanoma
SNB-75 CNS = tested on: SNB-75 CNS
SK-MEL-5 melanoma = tested on: SK-MEL-5 melanoma
A549 NSCLC = tested on: A549 NSCLC
OVCAR-3 ovarian = tested on: OVCAR-3 ovarian
SK-MEL-28 melanoma = tested on: SK-MEL-28 melanoma
EKVX NSCLC = tested on: EKVX NSCLC
OVCAR-4 ovarian = tested on: OVCAR-4 ovarian
MOLT-4 leukemia = tested on: MOLT-4 leukemia
HT29 colon = tested on: HT29 colon
M14 melanoma = tested on: M14 melanoma
CAKI-1 renal = tested on: CAKI-1 renal
IGROV1 ovarian = tested on: IGROV1 ovarian
HL-60(TB) leukemia = tested on: HL-60(TB) leukemia
SF-268 CNS = tested on: SF-268 CNS
MALME-3M melanoma = tested on: MALME-3M melanoma
SW-620 colon = tested on: SW-620 colon
SK-OV-3 ovarian = tested on: SK-OV-3 ovarian
UO-31 renal = tested on: UO-31 renal
HS 578T breast = tested on: HS 578T breast
T-47D breast = tested on: T-47D breast
MDA-MB-435 melanoma = tested on: MDA-MB-435 melanoma
PC-3 prostate = tested on: PC-3 prostate

With `C=CCNC1=C2C[C@@H](C)C[C@H](OC)[C@H](O)[C@@H](C)/C=C(\C)[C@H](OC(N)=O)[C@@H](OC)/C=C\C=C(/C)C(=O)NC(=CC1=O)C2=O` the GI50 (TK-10 renal) was 35.7 nM, the TGI (TK-10 renal) was 13500 nM and the GI50 (HOP-92 NSCLC) was 716 nM. For the same compound, the TGI (HOP-92 NSCLC) was 3140 nM, the GI50 (MDA-MB-468 breast) was 180 nM and the TGI (MDA-MB-468 breast) was 733 nM. For the same compound, the GI50 (UACC-62 melanoma) was 11.8 nM, the TGI (UACC-62 melanoma) was 53.5 nM and the GI50 (ACHN renal) was 83.2 nM. It also gave a TGI (ACHN renal) of 12000 nM, a GI50 (U251 glioblastoma) of 26.2 nM and a TGI (U251 glioblastoma) of 167 nM. It also gave a GI50 (OVCAR-5 ovarian) of 59.2 nM, a TGI (OVCAR-5 ovarian) of 12600 nM and a GI50 (MDA-MB-231 breast) of 422 nM. It also gave a TGI (MDA-MB-231 breast) of 2240 nM, a GI50 (COLO 205 colon) of less than 10 nM and a TGI (COLO 205 colon) of 11 nM. The GI50 (HOP-62 NSCLC) was 20.4 nM, the TGI (HOP-62 NSCLC) was 1750 nM and the GI50 (HCT-15 colon) was 51.9 nM. For the same compound, the TGI (HCT-15 colon) was 5340 nM, the GI50 (MCF7 breast) was less than 10 nM and the TGI (MCF7 breast) was 41.6 nM. For the same compound, the GI50 (BT-549 breast) was less than 10 nM, the TGI (BT-549 breast) was 31.2 nM and the GI50 (SF-295 CNS) was 21.9 nM. The TGI (SF-295 CNS) was 121 nM, the GI50 (SR leukemia) was 11 nM and the TGI (SR leukemia) was 25.3 nM. It also gave a GI50 (NCI-H522 lung) of 13.6 nM, a TGI (NCI-H522 lung) of 47.4 nM and a GI50 (NCI-H226 lung) of 33.3 nM. It also gave a TGI (NCI-H226 lung) of 440 nM, a GI50 (SK-MEL-2 melanoma) of less than 10 nM and a TGI (SK-MEL-2 melanoma) of 112 nM. It also gave a GI50 (KM12 colon) of less than 10 nM, a TGI (KM12 colon) of 11.5 nM and a GI50 (SNB-19 CNS) of 50.8 nM. The TGI (SNB-19 CNS) was 10800 nM, the GI50 (RXF 393 renal) was 16.5 nM and the TGI (RXF 393 renal) was 65.6 nM. The GI50 (SF-539 CNS) was 13.9 nM, the TGI (SF-539 CNS) was 36.1 nM and the GI50 (NCI-H460 NSCLC) was less than 10 nM. The TGI (NCI-H460 NSCLC) was 1610 nM, the GI50 (K-562 leukemia) was 27.6 nM and the TGI (K-562 leukemia) was 10300 nM. For the same compound, the GI50 (SN12C renal) was 17.2 nM, the TGI (SN12C renal) was 255 nM and the GI50 (NCI-H322M lung) was less than 10 nM. The TGI (NCI-H322M lung) was 10100 nM, the GI50 (HCT-116 colon) was 36.5 nM and the TGI (HCT-116 colon) was 8320 nM. It also gave a GI50 ([…]-0 renal) of 65.7 nM, a TGI (786-0 renal) of 271 nM and a GI50 (A498 renal) of 34.5 nM. It also gave a TGI (A498 renal) of 12400 nM, a GI50 (OVCAR-8 ovarian) of 42.2 nM and a TGI (OVCAR-8 ovarian) of 205 nM. The GI50 (UACC-257 melanoma) was 27.4 nM, the TGI (UACC-257 melanoma) was 1350 nM and the GI50 (SNB-75 CNS) was 13.8 nM. For the same compound, the TGI (SNB-75 CNS) was 73.8 nM, the GI50 (SK-MEL-5 melanoma) was less than 10 nM and the TGI (SK-MEL-5 melanoma) was 2900 nM. The GI50 (A549 NSCLC) was less than 10 nM, the TGI (A549 NSCLC) was 10500 nM and the GI50 (OVCAR-3 ovarian) was 37.1 nM. It also gave a TGI (OVCAR-3 ovarian) of 447 nM, a GI50 (SK-MEL-28 melanoma) of 29.5 nM and a TGI (SK-MEL-28 melanoma) of 15200 nM. The GI50 (EKVX NSCLC) was 44.8 nM, the TGI (EKVX NSCLC) was 419 nM and the GI50 (OVCAR-4 ovarian) was 158 nM. It also gave a TGI (OVCAR-4 ovarian) of 12000 nM, a GI50 (MOLT-4 leukemia) of 145 nM and a TGI (MOLT-4 leukemia) of 336 nM. It also gave a GI50 (HT29 colon) of less than 10 nM, a TGI (HT29 colon) of 10700 nM and a GI50 (M14 melanoma) of less than 10 nM. For the same compound, the TGI (M14 melanoma) was 11400 nM, the GI50 (CAKI-1 renal) was 140 nM and the TGI (CAKI-1 renal) was 14700 nM. It also gave a GI50 (IGROV1 ovarian) of 27.1 nM, a TGI (IGROV1 ovarian) of 281 nM and a GI50 (HL-60(TB) leukemia) of 31 nM. For the same compound, the TGI (HL-60(TB) leukemia) was 169 nM, the GI50 (SF-268 CNS) was 27.4 nM and the TGI (SF-268 CNS) was 11100 nM. The GI50 (MALME-3M melanoma) was less than 10 nM, the TGI (MALME-3M melanoma) was 282 nM and the GI50 (SW-620 colon) was 16 nM. The TGI (SW-620 colon) was 10900 nM, the GI50 (SK-OV-3 ovarian) was 14.8 nM and the TGI (SK-OV-3 ovarian) was 99.5 nM. It also gave a GI50 (UO-31 renal) of 340 nM, a TGI (UO-31 renal) of 12000 nM and a GI50 (HS 578T breast) of less than 10 nM. It also gave a TGI (HS 578T breast) of 20.2 nM, a GI50 (T-47D breast) of 838 nM and a TGI (T-47D breast) of 6160 nM. The GI50 (MDA-MB-435 melanoma) was 34 nM, the TGI (MDA-MB-435 melanoma) was 13700 nM and the GI50 (PC-3 prostate) was 22.9 nM. It also gave a TGI (PC-3 prostate) of 124 nM.
